The compounds below were run against T1, human TLR3 (hTLR3) (Homo sapiens, UniProt O15455) (assay: Antagonist screen, hTLR3-NFκB-293 cells, NF-κB-luciferase reporter, with EC50 of poly(I:C)). Settings: compound at 0.5, 5, 50 μg/ml; EC50 concentration of poly(I:C); 16 h; NF-κB-luciferase.
T1 construct: expressed in transfected cells
T1 sequence (O15455 24-904): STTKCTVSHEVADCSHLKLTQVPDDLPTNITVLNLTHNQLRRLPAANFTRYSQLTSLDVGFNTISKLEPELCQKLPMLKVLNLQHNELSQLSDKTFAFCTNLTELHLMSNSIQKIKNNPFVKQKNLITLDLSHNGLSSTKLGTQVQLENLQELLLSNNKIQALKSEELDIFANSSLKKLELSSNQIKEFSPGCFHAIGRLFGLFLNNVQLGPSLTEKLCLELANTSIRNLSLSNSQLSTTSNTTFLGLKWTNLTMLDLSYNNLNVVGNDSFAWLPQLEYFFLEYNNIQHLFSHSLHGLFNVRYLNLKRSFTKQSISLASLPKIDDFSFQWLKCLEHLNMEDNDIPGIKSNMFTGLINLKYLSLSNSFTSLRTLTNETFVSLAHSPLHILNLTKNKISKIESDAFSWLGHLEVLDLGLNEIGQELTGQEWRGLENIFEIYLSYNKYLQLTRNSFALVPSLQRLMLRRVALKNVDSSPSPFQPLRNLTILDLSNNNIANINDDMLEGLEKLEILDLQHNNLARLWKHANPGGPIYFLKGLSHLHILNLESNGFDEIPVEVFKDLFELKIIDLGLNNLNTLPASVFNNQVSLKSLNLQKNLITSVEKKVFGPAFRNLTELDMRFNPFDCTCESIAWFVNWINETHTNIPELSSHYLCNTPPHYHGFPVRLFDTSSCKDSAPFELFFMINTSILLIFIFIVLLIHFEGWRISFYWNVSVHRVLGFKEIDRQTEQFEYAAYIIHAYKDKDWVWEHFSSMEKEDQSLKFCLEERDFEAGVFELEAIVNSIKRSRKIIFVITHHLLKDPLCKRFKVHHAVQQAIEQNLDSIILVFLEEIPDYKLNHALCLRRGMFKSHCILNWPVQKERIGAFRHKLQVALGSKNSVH
Format: cell-based
Protocol: The method is described in greater detail as follows. The cells for each individual cell clone (hTLR3-NFκB-293, hTLR7-NFκB-293, hTLR8-NFκB-293 and hTLR9-NFκB-293) were counted and seeded one day before the stimulation at 1.5×10^4 cells per well in 96-well cell culture plates. To become adherent the cells were incubated after seeding overnight at 37° C. in 5% CO2 humidified air.
The screen for each compound was performed at the same time for all of the receptors TLR3, TLR7, TLR8 and TLR9. Up to fifteen test compounds, each assayed in duplicate at each of three different final concentrations (0.5 μg/ml, 5 μg/ml, and 50 μg/ml), were used for 16 h cell stimulation on a single multiwell culture plate. A 4× final concentration master plate was created to prepare the different test compounds before they were added to the cells.
Controls were added as duplicates individually for each cell clone on the cell culture plate. Positive controls were used as follows (final concentrations): 50 μg/ml poly(I:C) for hTLR3-NFκB-293; 8 μM resiquimod (R848) for hTLR7-NFκB-293; 30 μM R848 for hTLR8-NFκB-293; and 2.5 μM CpG-ODN 2006 for hTLR9-NFκB-293. Media alone was used as negative control. After addition of controls and small molecules, the cell clones were additionally stimulated with the EC50 concentration of the appropriate receptor-specific ligand.
The mean value of wells H2 and H5 (each with cells and EC50 concentration of the appropriate receptor-specific ligand) divided by the mean of wells H3 and H6 (each with cells alone) yielded the baseline response (i.e., fold induction of luciferase activity) to EC50 concentration of the appropriate receptor-specific ligand.
After 16 h stimulation the supernatant was removed and the cells treated with lysis buffer and stored at −80° C. before measuring.
For each screen result a graphical documentation was performed.
The baseline result (measured with addition of the EC50 concentration of the receptor-specific ligand) for each cell culture plate was measured as described above. Antagonistic effects were measured by down regulation compared to the baseline. Antagonists were scored as follows: • 13: compounds for which there was clear down regulation at 0.5 μg/ml, 5 μg/ml, and 50 μg/ml; • 12: compounds for which there was clear down regulation at 5 μg/ml and 50 μg/ml; • 11: compounds for which there was clear down regulation only at 50 μg/ml; • —: compounds for which there was no clear down regulation even at 50 μg/ml. Agonists
Results were expressed as fold induction over baseline luciferase activity measured in the absence of poly(I:C). […] Additional screening was performed in like manner using additional small molecules selected from another library or specifically prepared for this purpose. Scoring is reported as above but as applied to TLR3.

| Compound | hTLR3 (inhibitory effect, antagonist score) |
| --- | --- |
| Clc1ccc(C(c2ccccc2Cl)C(Cl)Cl)cc1 (stereo not drawn) [compound 833, Mitotane] | 11 (compounds for which there was clear down regulation only at 50 μg/ml) |
| CC(=O)c1ccc2c(c1)N(CCCN(C)C)c1ccccc1S2.O=C(O)/C=C\C(=O)O [compound 576, Acetopromazinemaleate salt] | 11 (compounds for which there was clear down regulation only at 50 μg/ml) |
| O=C1Nc2ccccc2Oc2ccc([N+](=O)[O-])cc21 [compound 1352] | — (compounds for which there was no clear down regulation even at 50 μg/ml) |
| CCCCOC(=O)c1cc([N+](=O)[O-])cc2c1-c1cc(CO)c([NH+]([O-])O)cc1C2=C(C#N)C#N (stereo not drawn) [compound 939] | 11 (compounds for which there was clear down regulation only at 50 μg/ml) |
| O=C(O)c1cccc2c1/C(=N/O)c1ccccc1-2 [compound 918] | — (compounds for which there was no clear down regulation even at 50 μg/ml) |
| COC(=O)C1=CO[C@@H](C)[C@@H]2CN3CCc4c([nH]c5ccccc45)[C@@H]3C[C@H]12 [compound 593, Tetrahydroalstonine] | — (compounds for which there was no clear down regulation even at 50 μg/ml) |
| Cl.Cl.OCCN1CCN(CC/C=C2/c3ccccc3Sc3ccc(C(F)(F)F)cc32)CC1 [compound 340, Flupentixoldihydrochloride cis-(Z)] | 11 (compounds for which there was clear down regulation only at 50 μg/ml) |
| CS(=O)(=O)O.OC(CCN1CCCCC1)(c1ccccc1)c1ccccc1 [compound 799, Pridinolmethanesulfonate salt] | — (compounds for which there was no clear down regulation even at 50 μg/ml) |
| Cc1cccc(C)c1NC(=O)CN1CCN(CCCC(c2ccc(F)cc2)c2ccc(F)cc2)CC1 [compound 381, Lidoflazine] | 11 (compounds for which there was clear down regulation only at 50 μg/ml) |
| CC1NCCc2c1[nH]c1ccccc21.Cl (racemic) [compound 619, Eleagnine hydrochloride (R,S)] | — (compounds for which there was no clear down regulation even at 50 μg/ml) |
| COc1ccc2c(c1)[nH]c1c(C)nccc12.Cl [compound 613, harmine hydrochloride] | 12 (compounds for which there was clear down regulation at 5 μg/ml and 50 μg/ml) |
| Cc1c2ccncc2c(C)c2c1[nH]c1ccccc12 [compound 614, Ellipticine] | 12 (compounds for which there was clear down regulation at 5 μg/ml and 50 μg/ml) |
| Cl.Cl.Fc1ccc(C(OCCN2CCN(CCCc3ccccc3)CC2)c2ccc(F)cc2)cc1 [compound 386, GBR 12909hydrochloride] | 11 (compounds for which there was clear down regulation only at 50 μg/ml) |
| OCCN1CCN(CCCN2c3ccccc3Sc3ccc(Cl)cc32)CC1 [compound 125, Perphenazine] | — (compounds for which there was no clear down regulation even at 50 μg/ml) |
| Flunarizinehydrochloride [compound 312] | 11 (compounds for which there was clear down regulation only at 50 μg/ml) |
| OCc1cc2c(cn1)[nH]c1ccccc12 [compound 878, 3-hydroxymethyl-beta-carboline] | — (compounds for which there was no clear down regulation even at 50 μg/ml) |
| CC(NCCC(c1ccccc1)c1ccccc1)c1ccccc1.Cl (stereo not drawn) [compound 270, Fendiline hydrochloride] | 11 (compounds for which there was clear down regulation only at 50 μg/ml) |

| Compound | hTLR3 (inhibitory effect, antagonist score) |
| --- | --- |
| Trifluoperazinedihydrochloride [compound 313] | — (compounds for which there was no clear down regulation even at 50 μg/ml) |
| Cl.Clc1ccc(C(OCCN2CCCCC2)c2ccccc2)cc1 (stereo not drawn) [compound 793, Cloperastinehydrochloride] | 11 (compounds for which there was clear down regulation only at 50 μg/ml) |
| CC(CN(C)C)CN1c2ccccc2Sc2ccccc21.CC(CN(C)C)CN1c2ccccc2Sc2ccccc21.O=C(O)C(O)C(O)C(=O)O (stereo not drawn) [compound 842, Trimeprazine tartrate] | — (compounds for which there was no clear down regulation even at 50 μg/ml) |
| CN1CCCCC1CCN1c2ccccc2Sc2ccc([S+](C)[O-])cc21.O=S(=O)(O)c1ccccc1 (stereo not drawn) [compound 529, Mesoridazine besylate] | — (compounds for which there was no clear down regulation even at 50 μg/ml) |
| CN1CCC2C(C1)c1ccccc1N2Cc1ccccc1 (stereo not drawn) [compound 455, Mebhydroline 1,5 naphtalenedisulfonate] | — (compounds for which there was no clear down regulation even at 50 μg/ml) |
| NC(=O)c1cc(N)c2c(c1N)C(=O)c1ccccc1C2=O [compound 1158] | — (compounds for which there was no clear down regulation even at 50 μg/ml) |
| CCN(CC)CCCN(CC(=O)C1c2ccc(Cl)cc2NC(=O)c2ccccc21)C(=O)c1ccccc1 (stereo not drawn) [compound 1013] | — (compounds for which there was no clear down regulation even at 50 μg/ml) |
| COC(=O)c1cccc2c1-c1ccccc1/C2=N/O [compound 904] | 12 (compounds for which there was clear down regulation at 5 μg/ml and 50 μg/ml) |
| Prochlorperazinedimaleate [compound 399] | 12 (compounds for which there was clear down regulation at 5 μg/ml and 50 μg/ml) |
| CCN(CC)C(C)CN1c2ccccc2Sc2ccccc21.Cl (stereo not drawn) [compound 840, Ethopropazinehydrochloride] | — (compounds for which there was no clear down regulation even at 50 μg/ml) |
| CCCC(C(=O)OCCN(CC)CC)(c1ccccc1)c1ccccc1.Cl [compound 778, Proadifen hydrochloride] | 11 (compounds for which there was clear down regulation only at 50 μg/ml) |
| CC1CCN(C(=O)c2cccc3c2-c2ccccc2C3=O)CC1 [compound 1243] | — (compounds for which there was no clear down regulation even at 50 μg/ml) |
| CN(CCO)C(=O)c1cccc2c1-c1ccccc1C2=O [compound 890] | — (compounds for which there was no clear down regulation even at 50 μg/ml) |
| COc1ccc2[nH]c3c(c2c1)CCN=C3C [compound 621, Methoxy-6-harmalan] | — (compounds for which there was no clear down regulation even at 50 μg/ml) |
| CCOCCOC(=O)c1cc([N+](=O)[O-])cc2c1-c1c(cc([N+](=O)[O-])cc1[N+](=O)[O-])C2=C(C#N)C#N [compound 1241] | 11 (compounds for which there was clear down regulation only at 50 μg/ml) |
| CN(C)CCCN1c2ccccc2Sc2ccccc21.Cl [compound 693, Promazinehydrochloride] | — (compounds for which there was no clear down regulation even at 50 μg/ml) |
